# Experimental data reported in patent US12558362B2, “Use of cannabidiol in the treatment of seizures associated with rett syndrome” (JAZZ PHARMACEUTICALS RESEARCH UK LIMITED, priority 2020, dated 2026).
# Entries after “also recorded” stand apart in the source; their conditions may differ.
# Legend:
# [1] = tested on: patients diagnosed with Rett syndrome; experiment: Open label, expanded-access program of botanically derived purified CBD: seizure frequency recorded in caregiver diaries relative to baseline; type: in vivo, human; parameters: Reduction in tonic seizures over the treatment period / Reduction in focal seizures with impairment over the treatment period / Reduction in absence seizures over the treatment period: concentration or dose not given beside the values; Seizure frequency, tonic / Seizure frequency, tonic-clonic / Seizure frequency, absence / Seizure frequency, focal with impairment: unit not given here; settings: for Seizure frequency, focal with impairment: baseline 3.2
# Procedure: Subjects were required to be on one or more AEDs at stable doses for a minimum of two weeks prior to baseline and to have stable vagus nerve stimulation (VNS) settings and ketogenic diet ratios for a minimum of four weeks prior to baseline.
# Patients were administered botanically derived purified CBD in a 100 mg/mL sesame oil-based solution which was titrated to an initial dose of between 5 and 25 milligrams per kilogram per day (mg/kg/day) in two divided doses. Doses were then increased weekly by 5 mg/kg/day to a goal of 25 mg/kg/day where required.
# A maximum dose of 50 mg/kg/day could be utilised for patients who were tolerating the medication but had not achieved seizure control; these patients had further weekly titration by 5 mg/kg/day.
# There were three patients in this study, and each received CBD for various durations of time. Modifications were made to concomitant AEDs as per clinical indication.
# Seizure frequency, intensity, and duration were recorded by caregivers in a diary during a baseline period of at least 28 days. Changes in seizure frequency relative to baseline were calculated after at least 2 weeks and at defined timepoints of treatment.
# Patients may be defined as responders if they had more than 50% reduction in seizure frequency compared to baseline. The percent change in seizure frequency was calculated as follows: […]
# The percent change of seizure frequency may be calculated for any time interval where seizure number has been recorded. For the purpose of this example the percent change of seizure frequency for the end of the treatment period was calculated as follows:
# [formula] Results Patient Description
# [2] = tested on: patients with Dravet and Lennox-Gastaut syndrome; settings: cited from earlier work
# [3] = tested on: mouse model of Rett syndrome; settings: cited from earlier work
# [4] = Patient 2, treated for 84 weeks
# [5] = printed Patient 2 (follows Table 2C of Patient 3), treated for 36 weeks
smiles,measurement,setting,value
"C=C(C)[C@@H]1CCC(C)=C[C@H]1c1c(O)cc(CCCCC)cc1O [CBD, cannabidiol]","Seizure frequency, tonic-clonic","[1]; Patient 1, 2 weeks, CBD 5.0 mg/kg/day, baseline 10.0",26.0
same,"Seizure frequency, tonic","[1]; Patient 1, 2 weeks, CBD 5.0 mg/kg/day, baseline 22.4",22.0
same,"Seizure frequency, tonic-clonic","[1]; Patient 1, 4 weeks, CBD 10.0 mg/kg/day, baseline 10.0",21.4
same,"Seizure frequency, tonic","[1]; Patient 1, 4 weeks, CBD 10.0 mg/kg/day, baseline 22.4",38.0
same,"Seizure frequency, tonic-clonic","[1]; Patient 1, 8 weeks, CBD 20.0 mg/kg/day, baseline 10.0",14.0
same,"Seizure frequency, tonic","[1]; Patient 1, 8 weeks, CBD 20.0 mg/kg/day, baseline 22.4",28.0
same,"Seizure frequency, tonic-clonic","[1]; Patient 1, 12 weeks, CBD 25.0 mg/kg/day, baseline 10.0",12.0
same,"Seizure frequency, tonic","[1]; Patient 1, 12 weeks, CBD 25.0 mg/kg/day, baseline 22.4",28.0
same,"Seizure frequency, tonic-clonic","[1]; Patient 1, 16 weeks, CBD 15.0 mg/kg/day, baseline 10.0",22.0
same,"Seizure frequency, tonic","[1]; Patient 1, 16 weeks, CBD 15.0 mg/kg/day, baseline 22.4",14.0
same,"Seizure frequency, tonic-clonic","[1]; Patient 1, 24 weeks, CBD 15.0 mg/kg/day, baseline 10.0",12.0
same,"Seizure frequency, tonic","[1]; Patient 1, 24 weeks, CBD 15.0 mg/kg/day, baseline 22.4",8.0
same,"Seizure frequency, tonic-clonic","[1]; Patient 1, 36 weeks, CBD 15.0 mg/kg/day, baseline 10.0",20.0
same,"Seizure frequency, tonic","[1]; Patient 1, 36 weeks, CBD 15.0 mg/kg/day, baseline 22.4",20.0
same,Reduction in tonic seizures over the treatment period,"[1]; Patient 1, treated for 36 weeks",10.7%
same,"Seizure frequency, absence","[1]; Patient 2, 8 weeks, CBD 20.0 mg/kg/day, baseline 0",1.0
same,"Seizure frequency, focal with impairment","[1]; Patient 2, 8 weeks, CBD 20.0 mg/kg/day",0
same,"Seizure frequency, tonic","[1]; Patient 2, 8 weeks, CBD 20.0 mg/kg/day, baseline 5.6",3.0
same,"Seizure frequency, absence","[1]; Patient 2, 12 weeks, CBD 20.0 mg/kg/day, baseline 0",0
same,"Seizure frequency, focal with impairment","[1]; Patient 2, 12 weeks, CBD 20.0 mg/kg/day",0
same,"Seizure frequency, tonic","[1]; Patient 2, 12 weeks, CBD 20.0 mg/kg/day, baseline 5.6",1.6
same,"Seizure frequency, absence","[1]; Patient 2, 16 weeks, CBD 20.0 mg/kg/day, baseline 0",0
same,"Seizure frequency, focal with impairment","[1]; Patient 2, 16 weeks, CBD 20.0 mg/kg/day",0
same,"Seizure frequency, tonic","[1]; Patient 2, 16 weeks, CBD 20.0 mg/kg/day, baseline 5.6",2.0
same,"Seizure frequency, absence","[1]; Patient 2, 24 weeks, CBD 20.0 mg/kg/day, baseline 0",0.8
same,"Seizure frequency, focal with impairment","[1]; Patient 2, 24 weeks, CBD 20.0 mg/kg/day",0
same,"Seizure frequency, tonic","[1]; Patient 2, 24 weeks, CBD 20.0 mg/kg/day, baseline 5.6",0.4
same,"Seizure frequency, absence","[1]; Patient 2, 36 weeks, CBD 20.0 mg/kg/day, baseline 0",0.4
same,"Seizure frequency, focal with impairment","[1]; Patient 2, 36 weeks, CBD 20.0 mg/kg/day",0
same,"Seizure frequency, tonic","[1]; Patient 2, 36 weeks, CBD 20.0 mg/kg/day, baseline 5.6",0.4
same,"Seizure frequency, absence","[1]; Patient 2, 48 weeks, CBD 20.0 mg/kg/day, baseline 0",0
same,"Seizure frequency, focal with impairment","[1]; Patient 2, 48 weeks, CBD 20.0 mg/kg/day",0
same,"Seizure frequency, tonic","[1]; Patient 2, 48 weeks, CBD 20.0 mg/kg/day, baseline 5.6",0.8
same,"Seizure frequency, absence","[1]; Patient 2, 60 weeks, CBD 20.0 mg/kg/day, baseline 0",0
same,"Seizure frequency, focal with impairment","[1]; Patient 2, 60 weeks, CBD 20.0 mg/kg/day",0
same,"Seizure frequency, tonic","[1]; Patient 2, 60 weeks, CBD 20.0 mg/kg/day, baseline 5.6",1.4
same,"Seizure frequency, absence","[1]; Patient 2, 72 weeks, CBD 21.3 mg/kg/day, baseline 0",0.4
same,"Seizure frequency, focal with impairment","[1]; Patient 2, 72 weeks, CBD 21.3 mg/kg/day",0
same,"Seizure frequency, tonic","[1]; Patient 2, 72 weeks, CBD 21.3 mg/kg/day, baseline 5.6",0.4
same,"Seizure frequency, absence","[1]; Patient 2, 84 weeks, CBD 20.0 mg/kg/day, baseline 0",0.4
same,"Seizure frequency, focal with impairment","[1]; Patient 2, 84 weeks, CBD 20.0 mg/kg/day",0
same,"Seizure frequency, tonic","[1]; Patient 2, 84 weeks, CBD 20.0 mg/kg/day, baseline 5.6",0.4
same,Reduction in focal seizures with impairment over the treatment period,[1]; [4],100%
same,Reduction in tonic seizures over the treatment period,[1]; [4],92.9%
same,"Seizure frequency, tonic-clonic","[1]; Patient 3, 4 weeks, CBD 25.0 mg/kg/day, baseline 4.0",4.0
same,"Seizure frequency, absence","[1]; Patient 3, 4 weeks, CBD 25.0 mg/kg/day, baseline 8.0",1.0
same,"Seizure frequency, tonic","[1]; Patient 3, 4 weeks, CBD 25.0 mg/kg/day, baseline 16.0",2.0
same,"Seizure frequency, tonic-clonic","[1]; Patient 3, 12 weeks, CBD 25.0 mg/kg/day, baseline 4.0",4.0
same,"Seizure frequency, absence","[1]; Patient 3, 12 weeks, CBD 25.0 mg/kg/day, baseline 8.0",0
same,"Seizure frequency, tonic","[1]; Patient 3, 12 weeks, CBD 25.0 mg/kg/day, baseline 16.0",1.0
same,"Seizure frequency, tonic-clonic","[1]; Patient 3, 16 weeks, CBD 25.0 mg/kg/day, baseline 4.0",6.0
same,"Seizure frequency, absence","[1]; Patient 3, 16 weeks, CBD 25.0 mg/kg/day, baseline 8.0",0
same,"Seizure frequency, tonic","[1]; Patient 3, 16 weeks, CBD 25.0 mg/kg/day, baseline 16.0",4.0
same,"Seizure frequency, tonic-clonic","[1]; Patient 3, 24 weeks, CBD 25.0 mg/kg/day, baseline 4.0",8.0
same,"Seizure frequency, absence","[1]; Patient 3, 24 weeks, CBD 25.0 mg/kg/day, baseline 8.0",4.0
same,"Seizure frequency, tonic","[1]; Patient 3, 24 weeks, CBD 25.0 mg/kg/day, baseline 16.0",0
same,"Seizure frequency, tonic-clonic","[1]; Patient 3, 36 weeks, CBD 25.0 mg/kg/day, baseline 4.0",6.0
same,"Seizure frequency, absence","[1]; Patient 3, 36 weeks, CBD 25.0 mg/kg/day, baseline 8.0",1.0
same,"Seizure frequency, tonic","[1]; Patient 3, 36 weeks, CBD 25.0 mg/kg/day, baseline 16.0",4.0
same,"Reductions in seizures over the period of treatment, overall","[1]; all three patients, range over patients and seizure types",10.7-100.0%
same,"Decrease of seizure frequency rates: tonic, tonic-clonic, absence and focal seizures with impairment","[1]; conclusion, all patients",11-100.0%
same,"Seizure freedom, focal seizures with impairment",[1]; one patient (patient 2),became seizure free of focal seizures with impairment
same,Reduction in absence seizures over the treatment period,[1]; [5],87.5%
same,Reduction in tonic seizures over the treatment period,[1]; [5],75%
same,"Reduction in tonic seizures, all three patients",[1]; range over the three patients,11-93%
same,Reduction of seizures associated with Rett syndrome,[1]; summary statement of the program,significantly reduce the number of seizures; also recorded: significant reduction in specific seizure types
same,"Effect on frequency of tonic, absence and focal seizures with impairment",[1]; three patients with Rett syndrome,effective in reducing the frequency
same,Efficacy in randomized control trials,[2],showed efficacy
"C=C(C)[C@@H]1CCC(C)=C[C@H]1c1c(O)cc(CCC)cc1O [CBDV, cannabidivarin]",Behavioural alterations,[3],rescue the behavioural alterations
